Laboratory results published in the CheMixHub ionic liquid set.
“And” between values parts separate entries of the source, which are not always exact repeats. Identical values can stand only once. ± gives the uncertainty stated by the source.

Assay: xn = mol fraction of the nth substance listed

CCCCCCCCn1cc[n+](C)c1.[Br-] + O + CCCCCC[n+]1ccn(C)c1.[Br-]
electrical conductivity, 101.3 kPa
Settings	x2 = 0.8977, x1 = 0.04147	x2 = 0.8977, x1 = 0.06092	x2 = 0.8993, x1 = 0.02123	x2 = 0.8993, x1 = 0.07955	x2 = 0.9473, x1 = 0.02113	x2 = 0.9473, x1 = 0.03155	x2 = 0.9477, x1 = 0.01078	x2 = 0.9477, x1 = 0.04155
293.15 K	3.55 S/m and 3.56 S/m and 3.57 S/m	3.41 S/m and 3.44 S/m (2×)	3.68 S/m and 3.69 S/m	3.3 S/m and 3.31 S/m and 3.32 S/m	3.98 S/m and 4 S/m and 4.01 S/m	3.83 S/m and 3.85 S/m and 3.87 S/m	4.14 S/m (2×) and 4.16 S/m	3.7 S/m and 3.71 S/m and 3.72 S/m
298.15 K	4.11 S/m and 4.12 S/m	3.95 S/m and 3.96 S/m and 3.98 S/m	4.25 S/m and 4.26 S/m	3.81 S/m and 3.83 S/m and 3.84 S/m	4.56 S/m and 4.6 S/m and 4.61 S/m	4.4 S/m and 4.44 S/m (2×)	4.74 S/m and 4.76 S/m and 4.77 S/m	4.25 S/m and 4.26 S/m and 4.28 S/m
303.15 K	4.67 S/m and 4.68 S/m and 4.7 S/m	4.51 S/m and 4.52 S/m and 4.54 S/m	4.85 S/m (2×) and 4.86 S/m	4.36 S/m and 4.37 S/m and 4.38 S/m	5.21 S/m and 5.22 S/m and 5.24 S/m	5.01 S/m and 5.03 S/m and 5.05 S/m	5.39 S/m and 5.4 S/m and 5.42 S/m	4.84 S/m and 4.86 S/m and 4.87 S/m

CCCC[N+]1(C)CCCC1.O=S(=O)([N-]S(=O)(=O)C(F)(F)F)C(F)(F)F + CC1COC(=O)O1
Settings	electrical conductivity [S/m]	viscosity [mPa·s]
253.15 K, 101 kPa, x2 = 0.11	0.026 ± 0.002	–
253.15 K, 101 kPa, x2 = 0.21	0.04 ± 0.002	–
253.15 K, 101 kPa, x2 = 0.47	0.108 ± 0.002	–
253.15 K, 101 kPa, x2 = 0.63	0.183 ± 0.002	–
253.15 K, 101 kPa, x2 = 0.79	0.27 ± 0.002	–
253.15 K, 101 kPa, x2 = 0.89	0.283 ± 0.002	–
258.15 K, 101 kPa, x2 = 0.16	0.052 ± 0.002	–
258.15 K, 101 kPa, x2 = 0.26	0.073 ± 0.002	–
258.15 K, 101 kPa, x2 = 0.58	0.199 ± 0.002	–
263.15 K, 101 kPa, x2 = 0.05	0.053 ± 0.002	–
263.15 K, 101 kPa, x2 = 0.37	0.14 ± 0.002	–
263.15 K, 101 kPa, x2 = 0.53	0.225 ± 0.002	–
268.15 K, 101 kPa, x2 = 0.68	0.418 ± 0.002	–
273.15 K, 101 kPa, x2 = 0	0.109 ± 0.002	–
273.15 K, 101 kPa, x2 = 0.26	0.195 ± 0.002	–
273.15 K, 101 kPa, x2 = 0.42	0.281 ± 0.002	–
273.15 K, 101 kPa, x2 = 0.74	0.535 ± 0.002	–
278.15 K, 101 kPa, x2 = 0.26	0.253 ± 0.002	–
278.15 K, 101 kPa, x2 = 0.95	0.504 ± 0.002	–
283.15 K, 101 kPa, x2 = 0.05	0.212 ± 0.002	–
283.15 K, 101 kPa, x2 = 0.16	0.257 ± 0.002	–
283.15 K, 101 kPa, x2 = 0.37	0.382 ± 0.002	–
283.15 K, 101 kPa, x2 = 0.58	0.557 ± 0.002	–
283.15 K, 101 kPa, x2 = 0.68	0.654 ± 0.002	–
283.15 K, 101 kPa, x2 = 0.89	0.698 ± 0.002	–
283.15 K, 101 kPa, x2 = 0.95	0.566 ± 0.002	–
283.15 K, 101 kPa, x2 = 0.97	0.458 ± 0.002	–
288.15 K, 101 kPa, x2 = 0.26	0.384 ± 0.002	–
288.15 K, 101 kPa, x2 = 0.47	0.547 ± 0.002	–
288.15 K, 101 kPa, x2 = 0.74	0.787 ± 0.002	–
288.15 K, 101 kPa, x2 = 0.79	0.817 ± 0.002	–
293.15 K, 100 kPa, x2 = 0.8	0.93 ± 0.06	7.8 ± 1.2
293.15 K, 101 kPa, x2 = 0	0.303 ± 0.002	86.1 ± 1.3
293.15 K, 101 kPa, x2 = 0.53	0.689 ± 0.002	21.23 ± 0.18
293.15 K, 101 kPa, x2 = 0.79	0.91 ± 0.002	7.77 ± 0.07
298.15 K, 101 kPa, x2 = 0.32	0.581 ± 0.002	28.28 ± 0.28
298.15 K, 101 kPa, x2 = 0.37	–	25.45 ± 0.25
298.15 K, 101 kPa, x2 = 0.42	0.678 ± 0.002	22.81 ± 0.22
298.15 K, 101 kPa, x2 = 0.63	0.892 ± 0.002	12.82 ± 0.12
303.15 K, 101 kPa, x2 = 0.21	0.574 ± 0.002	29.14 ± 0.28
303.15 K, 101 kPa, x2 = 0.42	0.771 ± 0.002	19 ± 0.18
303.15 K, 101 kPa, x2 = 0.63	1.001 ± 0.002	10.87 ± 0.1
303.15 K, 101 kPa, x2 = 0.74	1.091 ± 0.002	7.36 ± 0.06
303.15 K, 101 kPa, x2 = 0.84	1.099 ± 0.002	4.68 ± 0.04
308.15 K, 101 kPa, x2 = 0.37	0.816 ± 0.002	17.76 ± 0.16
313.15 K, 101 kPa, x2 = 0.21	0.75 ± 0.002	20.27 ± 0.18
313.15 K, 101 kPa, x2 = 0.32	0.858 ± 0.002	16.62 ± 0.15
313.15 K, 101 kPa, x2 = 0.47	1.036 ± 0.002	12.28 ± 0.11
313.15 K, 101 kPa, x2 = 0.79	1.3 ± 0.002	4.64 ± 0.04
313.15 K, 101 kPa, x2 = 0.84	1.271 ± 0.002	3.75 ± 0.03
313.15 K, 101 kPa, x2 = 0.97	0.721 ± 0.002	–
318.15 K, 101 kPa, x2 = 0	–	29.72 ± 0.3
318.15 K, 101 kPa, x2 = 0.05	–	25.14 ± 0.23
318.15 K, 101 kPa, x2 = 0.47	–	10.64 ± 0.09
318.15 K, 101 kPa, x2 = 0.89	–	2.77 ± 0.02

100 kPa, frequency 0.003 MHz
Settings	electrical conductivity [S/m]
297.1 K, x1 = 0.8	0.396 ± 0.024
299.8 K, x1 = 0.4	0.804 ± 0.048
299.9 K, x1 = 0.8	0.413 ± 0.025
310.9 K, x1 = 0.8	0.527 ± 0.032
313.5 K, x1 = 0.4	0.931 ± 0.056
313.7 K, x1 = 0.2	1.15 ± 0.069
313.7 K, x1 = 0.8	0.552 ± 0.033
316.2 K, x1 = 0.2	1.17 ± 0.07
319.3 K, x1 = 0.6	0.727 ± 0.044
322.3 K, x1 = 0.9	0.559 ± 0.034
327.6 K, x1 = 0.6	0.788 ± 0.047
330.3 K, x1 = 0.2	1.26 ± 0.076
330.6 K, x1 = 0.9	0.636 ± 0.038
338.9 K, x1 = 0.2	1.31 ± 0.078
338.9 K, x1 = 0.8	0.768 ± 0.046
341.4 K, x1 = 0.8	0.788 ± 0.047
341.6 K, x1 = 0.6	0.886 ± 0.053
346.8 K, x1 = 0.4	1.18 ± 0.071
349.7 K, x1 = 0.4	1.21 ± 0.072

CCOP(=O)([O-])OCC.CC[n+]1ccn(C)c1 + O + CS(C)=O
viscosity [mPa·s], 100 kPa
Settings	293.15 K	303.15 K	313.15 K	323.15 K
x2 = 0.004, x3 = 0.497	–	53 ± 10	–	–
x2 = 0.005, x3 = 0.768	–	–	9.6 ± 3.4	7.1 ± 2
x2 = 0.008, x3 = 0.886	5.9	–	3.5 ± 1.5	2.9 ± 1

[Cl-].[Cl-].[Co+2] + CCCCCCCC[N+](CCCCCCCC)(CCCCCCCC)CCCCCCCC.[Br-] + Cc1ccc(C(C)C)c(O)c1
296.1 K, 101.3 kPa
Settings	viscosity [mPa·s]
x2 = 0.4, x1 = 0.2	79000
x2 = 0.4286, x1 = 0.1429	48000

[Cl-].[Cl-].[Co+2] + CCCCCCCCCCCCCC[P+](CCCCCC)(CCCCCC)CCCCCC.[Cl-] + CCCCCCCC(=O)O
Settings	viscosity [mPa·s]
296.1 K, 101.3 kPa, x2 = 0.4, x1 = 0.2	8500 ± 2600

Fc1ccccn1 + Fc1cccc[nH+]1.O=S(=O)([O-])C(F)(F)F
100 kPa
Settings	electrical conductivity [S/m]
242.8 K, x1 = 0.9	0.096 ± 0.002
252.7 K, x1 = 0.9	0.144 ± 0.003
262.8 K, x1 = 0.5	0.0069 ± 0.0001
282 K, x1 = 0.95	0.497 ± 0.01
282.5 K, x1 = 0.5	0.023 ± 0.0005
282.5 K, x1 = 0.9	0.576 ± 0.012
286.9 K, x1 = 0.95	0.564 ± 0.011
292.7 K, x2 = 0.01	0.174 ± 0.004
301.5 K, x1 = 0.9	0.75 ± 0.015

O=C1CCCO1 + COCCn1cc[n+](C)c1.N#C[S-]
Settings	viscosity [mPa·s]
313.15 K, 101 kPa, x2 = 0	1.38 ± 0.28

CCCCCCCCCCCCCCn1cc[n+](C)c1.[Br-] + O
electrical conductivity [S/m], 101 kPa, frequency 0.001 MHz
Settings	298.15 K	308.15 K	318.15 K
x1 = 4.74e-06	0.00249 ± 0.0002	0.00401 ± 0.00022	0.00409 ± 0.0002
x1 = 9.35e-06	0.00459 ± 0.00033	0.00671 ± 0.00037	0.00708 ± 0.00038
x1 = 1.386e-05	0.0065 ± 0.0005	0.0093 ± 0.0005	0.0101 ± 0.0005
x1 = 1.825e-05	0.00834 ± 0.00053	0.011 ± 0.0006	0.0127 ± 0.0007
x1 = 2.252e-05	0.0101 ± 0.0006	0.0135 ± 0.00076	0.0154 ± 0.00087
x1 = 2.669e-05	0.0119 ± 0.00075	0.0154 ± 0.00085	0.0182 ± 0.001
x1 = 3.076e-05	0.0136 ± 0.00083	0.0173 ± 0.001	0.0206 ± 0.0012
x1 = 3.474e-05	0.0152 ± 0.00095	0.0199 ± 0.0012	0.0232 ± 0.0013
x1 = 3.862e-05	0.0167 ± 0.001	0.0218 ± 0.0012	0.0253 ± 0.0014
x1 = 4.24e-05	0.0183 ± 0.0011	0.0238 ± 0.0013	0.028 ± 0.0016
x1 = 4.613e-05	0.0192 ± 0.0011	0.0252 ± 0.0013	0.0303 ± 0.0017
x1 = 4.973e-05	0.0199 ± 0.0011	0.0265 ± 0.0014	0.0322 ± 0.0017
x1 = 5.334e-05	0.0204 ± 0.0011	0.0273 ± 0.0014	0.0335 ± 0.0016
x1 = 5.676e-05	0.0209 ± 0.0011	0.0282 ± 0.0014	0.0345 ± 0.0017
x1 = 6e-05	0.0213 ± 0.0012	0.0288 ± 0.0014	0.0356 ± 0.0017
x1 = 6.343e-05	0.0217 ± 0.0012	0.0294 ± 0.0015	0.0365 ± 0.0017
x1 = 6.667e-05	0.0221 ± 0.0012	0.03 ± 0.0015	0.0372 ± 0.0017
x1 = 6.973e-05	0.0225 ± 0.0013	0.0305 ± 0.0015	0.0377 ± 0.0017
x1 = 7.28e-05	0.0229 ± 0.0013	0.0311 ± 0.0015	0.0383 ± 0.0018
x1 = 7.586e-05	0.0233 ± 0.0013	0.0316 ± 0.0016	0.0389 ± 0.0018
x1 = 7.892e-05	0.0236 ± 0.0013	0.0321 ± 0.0016	0.0396 ± 0.002
x1 = 8.18e-05	0.024 ± 0.0013	0.0326 ± 0.0016	0.0408 ± 0.0021
x1 = 8.451e-05	0.0243 ± 0.0014	0.0329 ± 0.0016	0.0414 ± 0.002
x1 = 8.739e-05	0.0246 ± 0.0014	0.0333 ± 0.0017	0.0418 ± 0.002
